ChEMBL document CHEMBL2380284, “X-ray crystal structures of the Escherichia coli RNA polymerase in complex with benzoxazinorifamycins” (J Med Chem, 2013)

How the values were obtained:
[1] = Inhibition of rifamycin-resistant Mycobacterium tuberculosis RNA polymerase D435V mutant after 10 mins by rolling circle transcription assay in presence of DNA nanocircle template NC45
[2] = Inhibition of rifamycin-resistant Mycobacterium tuberculosis RNA polymerase H445Y mutant after 10 mins by rolling circle transcription assay in presence of DNA nanocircle template NC45
[3] = Inhibition of rifamycin-resistant Mycobacterium tuberculosis RNA polymerase S450L mutant after 10 mins by rolling circle transcription assay in presence of DNA nanocircle template NC45

For `CO[C@H]1/C=C/O[C@@]2(C)Oc3c(C)c(O)c4c(O)c(c(/C=N/N5CCN(C)CC5)c(O)c4c3C2=O)NC(=O)/C(C)=C\C=C\[C@H](C)[C@H](O)[C@@H](C)[C@@H](O)[C@@H](C)[C@H](OC(C)=O)[C@@H]1C` [RIFAMPIN], the IC50 [1] was 465 µM, the IC50 [2] was 610 µM and the IC50 [3] was 109 µM.
